Biological target: human RIP1 kinase domain (2-375) (Homo sapiens (Human), UniProt Q13546)
Experiment: biochemical
Format: biochemical
Conditions: Table 1; apparent Ki (Morrison tight-binding fit); 50 nM RIP1 kinase domain, 50 uM ATP, 2 hours incubation; read-out: RIP1 Ki
Experimental: Example 794: RIP1 Kinase Inhibition Assays (Biochemical Assay)
The compounds of the present invention were tested for their capacity to inhibit RIP1K activity as described below.
The ability of the receptor interacting protein kinase (RIPK1) to catalyze the hydrolysis of adenosine-5′-triphosphate (ATP) is monitored using the Transcreener ADP (adenosine-5′-diphosphate) assay (BellBrook Labs). Purified human RIP1 kinase domain (2-375) (50 nM) derived from a baculovirus-infected insect cell expression system is incubated with test compounds for 2 hours in 50 mM Hepes buffer (pH 7.5) containing 30 mM MgCl2, 1 mM dithiothreitol, 50 uM ATP, 0.002% Brij-35, and 0.5% dimethyl sulfoxide (DMSO). […] The tracer bound to the antibody is displaced by the ADP generated during the RIP1K reaction, which causes a decrease in fluorescence polarization that is measured by laser excitation at 633 nm with a FP microplate reader M1000. Fractional activity was plotted against test article concentration. Using Genedata Screener software (Genedata; Basel, Switzerland), the data were fit to the tight-binding apparent inhibition constant (Ki^app) Morrison equation [Williams, J. W. and Morrison, J. F. (1979) The kinetics of reversible tight-binding inhibition. Methods Enzymol 63: 437-67]. The following equation was used to calculate fractional activity and Ki^app:
[formula] where [E]T and [I]T are the total concentrations of active enzyme and test article, respectively.
“Method” in the first column of each table refers to the synthetic method(s) used to prepare each compound as shown in the Examples above. In certain examples, chiral column retention times (min) are provided for certain stereoisomers.

Sequence of human RIP1 kinase domain (2-375) (Q13546 2-375): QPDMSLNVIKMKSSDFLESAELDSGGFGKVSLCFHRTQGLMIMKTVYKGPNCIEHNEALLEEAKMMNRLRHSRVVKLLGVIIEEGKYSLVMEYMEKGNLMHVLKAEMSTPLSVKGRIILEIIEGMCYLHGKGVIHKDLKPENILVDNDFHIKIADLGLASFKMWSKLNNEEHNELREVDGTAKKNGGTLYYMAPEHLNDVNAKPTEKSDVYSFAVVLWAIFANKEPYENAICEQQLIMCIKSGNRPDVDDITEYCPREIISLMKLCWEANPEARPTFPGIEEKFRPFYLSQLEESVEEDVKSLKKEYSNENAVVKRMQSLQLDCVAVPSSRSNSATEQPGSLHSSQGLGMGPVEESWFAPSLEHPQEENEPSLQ

SMILES	Ki
C[C@H]1CCc2onc(C(=O)N[C@H]3COc4ccccc4N(C)C3=O)c2C1 [Example 68, (S)-5-methyl-N-((S)-5-methyl-4-oxo-2,3,4,5-tetrahydrobenzo[b][1,4]oxazepin-3-yl)-4,5,6,7-tetrahydrobenzo[d]isoxazole-3-carboxamide]	53.8 nM
CC1(C)CCc2c(C(=O)N[C@H]3CCc4cc(Cl)ccc4NC3=O)n[nH]c2C1 [Example 53, (S)-N-(7-chloro-2-oxo-2,3,4,5-tetrahydro-1H-benzo[b]azepin-3-yl)-6,6-dimethyl-4,5,6,7-tetrahydro-1H-indazole-3-carboxamide]	4500 nM
C[C@@H]1CCc2onc(C(=O)N[C@H]3COc4ccccc4N(C)C3=O)c2C1 [Example 70, (R)-5-methyl-N-((S)-5-methyl-4-oxo-2,3,4,5-tetrahydrobenzo[b][l,4]oxazepin-3-yl)-4,5,6,7-tetrahydrobenzo[d]isoxazole-3-carboxamide]	219 nM
CN1C(=O)[C@@H](NC(=O)c2n[nH]c3c2CC(c2ccccc2)CC3)COc2ccccc21 (stereo partly drawn) [Example 24, N—((S)-5-methyl-4-oxo-2,3,4,5-tetrahydrobenzo[b][1,4]oxazepin-3-yl)-5-phenyl-4,5,6,7-tetrahydro-1H-indazole-3-carboxamide]	27.9 nM

Same assay, conditions: Table 5; apparent Ki (Morrison tight-binding fit); 50 nM RIP1 kinase domain, 50 uM ATP, 2 hours incubation; read-out: Ki

Ki	SMILES
598 nM	COCCNCc1cc2n(n1)CCC(NC(=O)c1ncn(Cc3ccccc3)n1)C(=O)N2C (single isomer, unassigned) [Example 724, 1-benzyl-N-[2-[(2-methoxyethylamino)methyl]-4-methyl-5-oxo-7,8-dihydro-6H-pyrazolo[1,5-a][1,3]diazepin-6-yl]-1,2,4-triazole-3-carboxamide]

Same assay, conditions: human RIP1 kinase domain (2-375), 50 uM ATP, 2 hours incubation, Transcreener ADP assay; read-out: RIP1 Ki

Ki	SMILES
93.6 nM	CN1C(=O)[C@@H](NC(=O)c2nnc(Cc3ccccc3)[nH]2)COc2c1cnn2C [Example 181, (S)-5-benzyl-N-(1,4-dimethyl-5-oxo-4,5,6,7-tetrahydro-1H-pyrazolo[3,4-b][1,4]oxazepin-6-yl)-4H-1,2,4-triazole-3-carboxamide]
75.6 nM	CN1C(=O)C(NC(=O)c2n[nH]c(Cc3ccccc3)n2)CCn2nc(-c3ccccc3)cc21 (stereo not shown) [Example 209, 5-benzyl-N-(4-methyl-5-oxo-2-phenyl-5,6,7,8-tetrahydro-4H-pyrazolo[1,5-a][1,3]diazepin-6-yl)-1H-1,2,4-triazole-3-carboxamide]
4300 nM	CC(c1ccccc1)c1nnc(C(=O)NC2CCCn3nccc3N(C)C2=O)[nH]1 (stereo not shown) [Example 95, N-(4-methyl-5-oxo-4,5,6,7,8,9-hexahydropyrazolo[1,5-a][1,3]diazocin-6-yl)-5-(1-phenylethyl)-4H-1,2,4-triazole-3-carboxamide]
268 nM	CN1C(=O)[C@@H](NC(=O)c2nc3n(n2)C(c2ccccc2)COC3)COc2ccccc21 (stereo partly drawn) [Example 123, N—((S)-5-methyl-4-oxo-2,3,4,5-tetrahydrobenzo[b][1,4]oxazepin-3-yl)-5-phenyl-5,6-dihydro-8H-[1,2,4]triazolo[5,1-c][1,4]oxazine-2-carboxamide]
166 nM	CN1C(=O)[C@@H](NC(=O)c2n[nH]c3c2CC2(CC3)CC2)COc2ccccc21 [Example 174, (S)—N-(5-methyl-4-oxo-2,3,4,5-tetrahydrobenzo[b][1,4]oxazepin-3-yl)-1′,4′,6′,7′-tetrahydrospiro[cyclopropane-1,5′-indazole]-3′-carboxamide]

Same assay, conditions: human RIP1 kinase domain (2-375), Transcreener ADP assay, 50 uM ATP, 2 hours incubation; read-out: RIP1 Ki

SMILES	Ki
CC[C@@]1(C)OCc2cnc(C(=O)N[C@H]3CCn4nc(C5CC5)cc4N(C)C3=O)cc21 [Example 245, (R)—N—((S)-2-cyclopropyl-4-methyl-5-oxo-5,6,7,8-tetrahydro-4H-pyrazolo[1,5-a][1,3]diazepin-6-yl)-1-ethyl-1-methyl-1,3-dihydrofuro[3,4-c]pyridine-6-carboxamide]	782 nM
Cc1cc2n(n1)CC[C@H](NC(=O)c1cc3c(cn1)COC3(C)CC(F)(F)F)C(=O)N2C (stereo partly drawn) [Example 266, N—((S)-2,4-dimethyl-5-oxo-5,6,7,8-tetrahydro-4H-pyrazolo[1,5-a][1,3]diazepin-6-yl)-1-m ethyl-1-(2,2,2-trifluoroethyl)-1,3-dihydrofuro[3,4-c]pyridine-6-carboxamide]	1300 nM
CN1C(=O)[C@@H](NC(=O)c2ncn(Cc3ccc(F)cc3F)n2)CCn2nc([C@H]3CC3(F)F)cc21 [Example 315, 1-(2,4-difluorobenzyl)-N—((S)-2-((R)-2,2-difluorocyclopropyl)-4-methyl-5-oxo-5,6,7,8-tetrahydro-4H-pyrazolo[1,5-a][1,3]diazepin-6-yl)-1H-1,2,4-triazole-3-carboxamide]	9500 nM

Further lines, results first:

Ki	SMILES
100 nM	CC(c1ccccc1)n1cnc(C(=O)N[C@H]2CCn3nc(C4CC4)cc3N(C)C2=O)n1 (stereo in doubt) [Example 292, (S)—N-(2-cyclopropyl-4-methyl-5-oxo-5,6,7,8-tetrahydro-4H-pyrazolo[1,5-a][1,3]diazepin-6-yl)-1-(1-phenylethyl)-1H-1,2,4-triazole-3-carboxamide]
199 nM	CN1C(=O)C(NC(=O)c2ncn(Cc3ccccc3)n2)CCn2nc(C3CCOCC3)cc21 (stereo not shown) [Example 234, 1-benzyl-N-(4-methyl-5-oxo-2-(tetrahydro-2H-pyran-4-yl)-5,6,7,8-tetrahydro-4H-pyrazolo[1,5-a][1,3]diazepin-6-yl)-1H-1,2,4-triazole-3-carboxamide]

Same assay, conditions: tight-binding apparent inhibition constant; human RIP1 kinase domain (2-375) 50 nM, 50 uM ATP, 2 hours; read-out: Ki

SMILES	Ki
CC(C)n1ncc2cnc(C(=O)N[C@H]3COc4cc(F)cc(F)c4NC3=O)nc21 [Example 605, 1-isopropyl-N-[(3S)-6,8-difluoro-4-oxo-3,5-dihydro-2H-1,5-benzoxazepin-3-yl]pyrazolo[3,4-d]pyrimidine-6-carboxamide]	9.5 nM
O=C(N[C@H]1CCc2cc(F)cc(F)c2NC1=O)c1nc2n(n1)CCO[C@H]2c1ccccc1F [Example 630, (8S)-8-(2-fluorophenyl)-N-[(3S)-7,9-difluoro-2-oxo-1,3,4,5-tetrahydro-1-benzazepin-3-yl]-6,8-dihydro-5H-[1,2,4]triazolo[5,1-c][1,4]oxazine-2-carboxamide]	30 nM
O=C(N[C@H]1CCc2cc(F)cc(F)c2NC1=O)c1ncc2c(n1)C1(CCCC1)OC2 [Example 637, N-[(3S)-7,9-difluoro-2-oxo-1,3,4,5-tetrahydro-1-benzazepin-3-yl]spiro[5H-furo[3,4-d]pyrimidine-7,1′-cyclopentane]-2-carboxamide]	18 nM
CCCC1(C)OCc2cnc(C(=O)N[C@H]3CCn4nc(C)cc4N(C)C3=O)nc21 (stereo partly drawn) [Example 564, 7-methyl-7-propyl-N-[(6S)-2,4-dimethyl-5-oxo-7,8-dihydro-6H-pyrazolo[1,5-a][1,3]diazepin-6-yl]-5H-furo[3,4-d]pyrimidine-2-carboxamide]	590 nM

Next, values leading:

Ki	SMILES
3800 nM	Cc1cc2n(n1)CC[C@@H](NC(=O)c1ncc3cnn(-c4ccccn4)c3n1)C(=O)N2C [Example 633, 1-(2-pyridyl)-N-[(6R)-2,4-dimethyl-5-oxo-7,8-dihydro-6H-pyrazolo[1,5-a][1,3]diazepin-6-yl]pyrazolo[3,4-d]pyrimidine-6-carboxamide]
57 nM	Cc1cn2c(n1)N(C)C(=O)[C@H](NC(=O)c1ncn(Cc3cc(F)ccc3F)n1)CC2 [Example 661, 1-[(2,5-difluorophenyl)methyl]-N-(7R)-2,9-dimethyl-8-oxo-6,7-dihydro-5H-imidazo[1,2-a][1,3]diazepin-7-yl-1,2,4-triazole-3-carboxamide]
150 nM	Cc1cc2n(n1)CC[C@H](NC(=O)c1ncc3cnn(C(C)C)c3n1)C(=O)N2C [Example 539, 1-isopropyl-N-[(6S)-2,4-dimethyl-5-oxo-7,8-dihydro-6H-pyrazolo[1,5-a][1,3]diazepin-6-yl]pyrazolo[3,4-d]pyrimidine-6-carboxamide]
50 nM	Cc1ncn2c1N(C)C(=O)[C@H](NC(=O)c1ncn(Cc3cc(F)ccc3F)n1)CC2 [Example 504, 1-[(2,5-difluorophenyl)methyl]-N-(3R)-1,9-dimethyl-2-oxo-4,5-dihydro-3H-imidazo[1,5-a][1,3]diazepin-3-yl-1,2,4-triazole-3-carboxamide]
23.7 nM	CN1C(=O)[C@@H](NC(=O)c2ncn(Cc3ccc(F)cc3)n2)CCn2nc(C3CC3)cc21 (stereo in doubt) [Example 681, 1-[(4-fluorophenyl)methyl]-N-[rac-(6S)-2-cyclopropyl-4-methyl-5-oxo-7,8-dihydro-6H-pyrazolo[1,5-a][1,3]diazepin-6-yl]-1,2,4-triazole-3-carboxamide]
82 nM	Cc1cc2n(n1)CC[C@H](NC(=O)c1nnc(Cc3ccc(F)cc3)[nH]1)C(=O)N2C [Example 484, 5-[(4-fluorophenyl)methyl]-N-(6S)-2,4-dimethyl-5-oxo-7,8-dihydro-6H-pyrazolo[1,5-a][1,3]diazepin-6-yl-4H-1,2,4-triazole-3-carboxamide]
